Experimental findings from US7268124B2, “Geranylgeranyl pyrophosphate synthase inhibitors” (University of Iowa Research Foundation, priority 2004, dated 2007) are described below.

Counter-ions that a name gives are not always drawn.

Holding throughout (assay type): biochemical
One assay has as its target T1, FPP synthase (Homo sapiens, UniProt P14324).
T1 sequence (P14324 1-419): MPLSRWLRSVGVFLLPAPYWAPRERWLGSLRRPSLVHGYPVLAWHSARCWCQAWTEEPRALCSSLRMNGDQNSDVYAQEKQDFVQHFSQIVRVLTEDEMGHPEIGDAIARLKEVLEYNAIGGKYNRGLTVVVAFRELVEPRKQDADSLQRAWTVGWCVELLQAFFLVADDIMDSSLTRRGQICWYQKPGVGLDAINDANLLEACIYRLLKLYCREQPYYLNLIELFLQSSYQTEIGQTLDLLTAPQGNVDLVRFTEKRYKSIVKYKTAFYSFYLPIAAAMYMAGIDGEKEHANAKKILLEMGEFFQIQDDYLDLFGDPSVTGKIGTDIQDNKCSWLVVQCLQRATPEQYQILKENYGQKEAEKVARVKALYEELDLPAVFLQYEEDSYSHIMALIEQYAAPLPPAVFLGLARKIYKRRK
The experiment in a line: FPP synthase enzyme inhibition. The conditions noted are these: mammalian enzyme; also no inhibition at 1 to 10 nanomolar; read-out: FPP synthase: not inhibited at concentrations as high as. From the text:
(§1) The ability of a compound of the invention to act as an inhibitor of geranylgeranyl pyrophosphate synthase may be determined using pharmacological models which are well known to the art, for example see Holstein, S. A., et al., Biochemistry 2003, 42, 4384-4391; and Ericsson et al, J. Biological Chemistry, 1993, 268, 832-838. The ability of a compound to inhibit FPP synthase, FPTase, and GGPTase can also be determined using pharmacological models which are well known to the art. The selectivity of a compound as an inhibitor of geranylgeranyl pyrophosphate synthase can be evaluated by comparing it's inhibitory activity against this enzyme with it's activity against another enzyme.

A further assay addresses FPTase (Homo sapiens, UniProt P49356). The experiment in a line: FPTase enzyme inhibition. The conditions noted are these: mammalian enzyme; also no inhibition at 1 to 10 nanomolar; read-out: FPTase: not inhibited at concentrations as high as.
Description: as §1, with “enzyme. In one embodiment of the invention, the compound of the invention is at least 2-fold selective for inhibiting geranylgeranyl pyrophosphate synthase compared to farnesylpyrophosphate. In another embodiment the compound is at least 10-fold selective for inhibiting geranylgeranyl pyrophosphate synthase compared to farnesylpyrophosphate. In another embodiment the compound is at least about 100-fold selective for inhibiting geranylgeranyl pyrophosphate synthase compared to farnesylpyrophosphate. In another embodiment of the invention, the compound of the invention is at least 2-fold selective for inhibiting geranylgeranyl pyrophosphate synthase compared to FPTase or GGPTase. […]” for “enzyme.”

For a further assay, the target named is T2, mammalian GGPP synthase (Homo sapiens, UniProt O95749).
T2 sequence (O95749 1-300): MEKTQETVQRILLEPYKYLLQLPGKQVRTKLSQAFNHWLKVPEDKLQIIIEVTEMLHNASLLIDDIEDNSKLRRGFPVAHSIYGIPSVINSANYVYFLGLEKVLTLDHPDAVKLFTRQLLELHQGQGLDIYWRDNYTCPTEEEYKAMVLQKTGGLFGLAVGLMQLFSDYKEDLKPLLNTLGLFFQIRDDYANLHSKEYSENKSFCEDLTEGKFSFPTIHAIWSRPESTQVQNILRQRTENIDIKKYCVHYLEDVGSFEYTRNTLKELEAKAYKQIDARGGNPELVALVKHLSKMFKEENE
In words: GGPP synthase enzyme inhibition. To be noted: read-out: concentration range that inhibits GGPP synthase by 50%.
Description: as §1

Regarding `CC(C)=CCC/C(C)=C/CC(C/C=C(\C)CCC=C(C)C)(P(=O)(O)O)P(=O)(O)O` [Compound 12, 1-(3,7-dimethyl-octa-2,6-dienyl)-4,8-dimethyl-nona-3,7-dienyl-1,1-bisphosphonic acid, tetrasodium salt], the IC50 at FPP synthase and at FPTase was > 50 µM throughout.
Consider `CC(C)=CCC/C(C)=C/CC(C/C=C(\C)CCC=C(C)C)(P(=O)(OCOC(=O)C(C)(C)C)OCOC(=O)C(C)(C)C)P(=O)(OCOC(=O)C(C)(C)C)OCOC(=O)C(C)(C)C` [Compound 13, tetrapivaloyloxymethyl (E)-1,1-bis(4,8-dimethyl-nona-3,7-dienyl)-1,1-bisphosphonate], for which the IC50 at mammalian GGPP synthase is 0.001 to 0.01 µM; at FPP synthase, > 50 µM; on FPTase, > 50 µM.
